The record followed here is patent publication US20100173914A1, “PHARMACEUTICALS, COMPOSITIONS AND METHODS OF MAKING AND USING THE SAME” (priority 2007, published 2010).

Assay [1] has as its target T1, human adenosine A2A receptors (Homo sapiens, UniProt P29274).
T1 construct: host or cells: HEK-293
The assay can be described thus: Adenosine receptor binding: binding affinities at hA2A receptors ([3H]CGS-21680 displacement). The conditions noted are these: for Ki: displacement of [3H]CGS-21680, HEK-293 cell membranes; for A2A/A1 selectivity ratio (Ki A2A/Ki A1): ratio of measured Ki values at hA2A and hA1. The text has this:
Adenosine Receptor Binding: Binding Affinities at hA2A Receptors
The compounds were examined in an assay measuring in vitro binding to human adenosine A2A receptors by determining the displacement of the adenosine A2A receptor selective radioligand 4-[2-[[6-Amino-9-(N-ethyl-β-D-ribofuranuronamidosyl)-9H-purin-2-yl]amino]ethyl]benzenepropanoic acid hydrochloride ([^3H]CGS-21680) using standard techniques. See, for example, Jarvis et al., J Pharmacol Exp Ther., 251(3):888-93, which is incorporated by reference in its entirety.
Frozen HEK-293 cells were homogenized in 65 mL of 50 mM Tris HCl buffer (pH 7.5) containing 10 mM MgCl2, and 0.1 IU/mL adenosine deaminase per pellet using a Ultra-Turrax homogenizer. The resultant homogenate was kept for immediate use in the binding assay.
(§1) Binding assays were performed in a total volume of 250 μL, containing [^3H]-CGS21680 (20.0 nM), membranes and additional drugs. Total binding was determined using drug dilution buffer (50 mM Tris-HCl pH 7.5, 10 mM MgCl2, 5% DMSO). Non-specific binding was determined using 300 μM CHA. Following incubation for 90 minutes at 21° C., assays were terminated by rapid filtration with GF/B filters (presoaked in 0.1% (w/v) polyethylenimine) using a Canberra Packard filtermate 196, washed 3 times with ice-cold Tris-HCl (pH 7.4). Filters were left to dry overnight, and Microscint-0 scintillation fluid was then added to the filters. The filters were then left for at least 2 hours before the radioactivity was assessed using a Canberra Packard TopCount microplate scintillation counter.
To determine the free ligand concentration, three vials were counted with 25 μL of [^3H]CGS21680 containing 4 mL of Ultima-Gold MV scintillant on a Beckman LS6500 multi-purpose scintillation counter.
(§2) Data was analysed using a 4 parameter logistical equation and non-linear regression which yields affinity constants (pIC50), and slope parameters:
where E is the quantity of binding and [A] is the competitor concentration. The Ki is then determined using the Cheng-Prusoff equation: […]
For orientation: In a radioligand displacement assay an active substance lowers the binding of a labelled ligand.

Assay [2] addresses T2, human adenosine A1 receptors (Homo sapiens, UniProt P30542).
T2 construct: expressed in transfected cells; host or cells: CHO-K1
T2 sequence (P30542 1-326): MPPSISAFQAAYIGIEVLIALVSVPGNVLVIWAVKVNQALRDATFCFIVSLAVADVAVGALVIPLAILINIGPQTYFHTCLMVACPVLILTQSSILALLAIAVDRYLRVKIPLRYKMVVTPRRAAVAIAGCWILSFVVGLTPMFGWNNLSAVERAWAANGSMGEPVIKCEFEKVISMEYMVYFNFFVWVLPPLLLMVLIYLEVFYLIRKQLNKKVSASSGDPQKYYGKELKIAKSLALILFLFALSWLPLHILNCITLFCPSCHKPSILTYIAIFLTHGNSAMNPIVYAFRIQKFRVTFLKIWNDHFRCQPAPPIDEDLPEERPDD
The assay can be described thus: Adenosine receptor binding: binding affinities at hA1 receptors ([3H]DPCPX displacement). The note with it: displacement of [3H]DPCPX, membranes of CHO-K1 cells transfected with human A1.
Text: Adenosine Receptor Binding: Binding Affinities at hA1 Receptors
The compounds were examined in an assay measuring in vitro binding to human adenosine A1 receptors by determining the displacement of the adenosine A1 receptor selective radioligand 8-Cyclopentyl-1,3-dipropylxanthine ([^3H]DPCPX) using standard techniques. See, for example, Lohse M J, et al., (1987), 8-Cyclopentyl-1,3-dipropylxanthine (DPCPX)—a selective high affinity antagonist radioligand for A1 adenosine receptors. Naunyn Schmiedebergs Arch Pharmacol., 336(2):204-10, which is incorporated by reference in its entirety.
as §1, with “Frozen CHO-K1 cells (transfected with a human adenosine A1 recepter expression vector) were homogenized in 130 mL of 50 mM Tris HCl buffer (pH 7.5) containing 10 mM MgCl2, and 0.1 IU/mL adenosine deaminase per pellet using a Ultra-Turrax homogeniser. The resultant homogenate was kept for immediate use in the binding. Binding” for “Binding”, “[^3H]-DPCPX (3.0” for “[^3H]-CGS21680 (20.0”, “pH:7.5,” for “pH 7.5,”, “N6-cyclohexyladenosine (CHA).” for “CHA.”
To determine the free ligand concentration, three vials were counted with 25 μL of [^3H]DPCPX containing 4 mL of Ultima-Gold MV scintillant on a Beckman LS6500 multi-purpose scintillation counter.
as §2
where E is the quantity of binding and [A] is the competitor concentration. The K, is then determined using the Cheng-Prusoff equation: […]

T1 sequence (P29274 whole entry): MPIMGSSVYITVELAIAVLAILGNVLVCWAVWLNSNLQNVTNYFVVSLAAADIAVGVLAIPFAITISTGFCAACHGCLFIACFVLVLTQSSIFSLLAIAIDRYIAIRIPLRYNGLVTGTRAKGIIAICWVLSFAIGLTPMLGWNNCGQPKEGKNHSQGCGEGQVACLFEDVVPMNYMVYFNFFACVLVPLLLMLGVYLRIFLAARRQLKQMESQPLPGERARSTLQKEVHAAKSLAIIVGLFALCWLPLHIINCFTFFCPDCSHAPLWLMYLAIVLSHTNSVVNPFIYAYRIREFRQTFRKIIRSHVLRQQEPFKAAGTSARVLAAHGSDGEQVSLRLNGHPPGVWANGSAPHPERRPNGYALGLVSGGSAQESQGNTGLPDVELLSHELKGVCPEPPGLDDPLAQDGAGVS

Broadly, the Ki is the equilibrium dissociation constant of an inhibitor or competing ligand from its target. A high value points to weaker binding. Take `COc1cc(NS(=O)(=O)O)ccc1Cn1nnc2c(-c3ccc(C)o3)nc(N)nc21`: in assay [1], the Ki is 0.1 to 1 µM and the “A2A/A1 selectivity ratio (Ki A2A/Ki A1)” value is recorded as “H (more than 20)”. Besides, the Ki in assay [2] lay within 1 to 10 µM.
As to `COc1ccccc1-c1nc(N)nc2c1nnn2Cc1cccc(NS(=O)(=O)O)c1` [3-[(5-amino-7-(2-methoxyphenyl)-3H-[1,2,3]triazolo[4,5-d]pyrimidin-3-yl)methyl]-phenylsulfamic acid], in assay [1], the Ki lay within 1 to 10 µM and the “A2A/A1 selectivity ratio (Ki A2A/Ki A1)” value is “E (less than 5)”. In assay [2], this compound displayed a Ki of 1 to 10 µM.
For `Cc1ccc(-c2nc(N)nc3c2nnn3Cc2cccc(NS(=O)(=O)O)c2)o1` [3-[(5-amino-7-(5-methylfuran-2-yl)-3H-[1,2,3]triazolo[4,5-d]pyrimidin-3-yl)methyl]phenylsulfamic acid], in assay [1], the Ki is ≤ 0.1 µM and the “A2A/A1 selectivity ratio (Ki A2A/Ki A1)” value is “H (more than 20)”. In assay [2], the Ki was 0.1 to 1 µM.
For `Nc1nc(-c2ccco2)c2nnn(Cc3cccc(NS(=O)(=O)O)c3)c2n1` [3-[(5-amino-7-(furan-2-yl)-3H-[1,2,3]triazolo[4,5-d]pyrimidin-3-yl)methyl]-phenylsulfamic acid] the same measures were 0.1 to 1 µM, “H (more than 20)” and 1 to 10 µM.
For `Nc1nc(-c2cccs2)c2nnn(Cc3cccc(NS(=O)(=O)O)c3)c2n1` [3-[(5-amino-7-(thiophen-2-yl)-3H-[1,2,3]triazolo[4,5-d]pyrimidin-3-yl)methyl]-phenylsulfamic acid], in assay [1], the Ki lay in the range of 0.1 to 1 µM and the “A2A/A1 selectivity ratio (Ki A2A/Ki A1)” value was “G (10 to 20)”. The same compound gave a Ki in assay [2] of 1 to 10 µM.
The like results for `Nc1nc(-c2ccccc2)c2nnn(Cc3cccc(NS(=O)(=O)O)c3)c2n1` [3-[(5-amino-7-phenyl-3H-[1,2,3]triazolo[4,5-d]pyrimidin-3-yl)methyl]-phenylsulfamic acid] were, in that order, ≤ 0.1 µM, “G (10 to 20)” and 1 to 10 µM.
Consider `COc1cc(Cn2nnc3c(-c4ccccc4OC)nc(N)nc32)ccc1NS(=O)(=O)O` [4-[(5-amino-7-(2-methoxyphenyl)-3H-[1,2,3]triazolo[4,5-d]pyrimidin-3-yl)methyl]-2-methoxyphenylsulfamic acid], for which, in assay [1], the Ki is > 10 µM and the “A2A/A1 selectivity ratio (Ki A2A/Ki A1)” value is given as “E (less than 5)”. For the same compound, the Ki in assay [2] was > 10 µM.
Take `COc1ccccc1-c1nc(N)nc2c1nnn2Cc1ccc(NS(=O)(=O)O)c(C)c1` [4-[(5-amino-7-(2-methoxyphenyl)-3H-[1,2,3]triazolo[4,5-d]pyrimidin-3-yl)methyl]-2-methylphenylsulfamic acid]: the values for the Ki in assay [1] and in assay [2] were 1 to 10 µM and > 10 µM, respectively. Further, in assay [1], the “A2A/A1 selectivity ratio (Ki A2A/Ki A1)” value was “E (less than 5)”.
Turning to `COc1cc(NS(=O)(=O)O)ccc1Cn1nnc2c(-c3ccccc3OC)nc(N)nc21` [4-[(5-amino-7-(2-methoxyphenyl)-3H-[1,2,3]triazolo[4,5-d]pyrimidin-3-yl)methyl]-3-methoxyphenylsulfamic acid], the Ki in assay [1] is 1 to 10 µM; in assay [2], > 10 µM. In assay [1], the “A2A/A1 selectivity ratio (Ki A2A/Ki A1)” value is “E (less than 5)”.
For `COc1ccccc1-c1nc(N)nc2c1nnn2Cc1ccc(NS(=O)(=O)O)cc1` [4-[(5-amino-7-(2-methoxyphenyl)-3H-[1,2,3]triazolo[4,5-d]pyrimidin-3-yl)methyl]phenylsulfamic acid] the same measures were 1 to 10 µM, > 10 µM and “E (less than 5)”.
The like results for `COc1cc(Cn2nnc3c(-c4ccc(C)o4)nc(N)nc32)ccc1NS(=O)(=O)O` [4-[(5-amino-7-(5-methylfuran-2-yl)-3H-[1,2,3]triazolo[4,5-d]pyrimidin-3-yl)methyl]-2-methoxyphenylsulfamic acid] were, in that order, ≤ 0.1 µM, 0.1 to 1 µM and “H (more than 20)”.
For `Cc1ccc(-c2nc(N)nc3c2nnn3Cc2ccc(NS(=O)(=O)O)c(C)c2)o1` [4-[(5-amino-7-(5-methylfuran-2-yl)-3H-[1,2,3]triazolo[4,5-d]pyrimidin-3-yl)methyl]-2-methylphenylsulfamic acid] the same measures were ≤ 0.1 µM, 0.1 to 1 µM and “H (more than 20)”.
With `Cc1ccc(-c2nc(N)nc3c2nnn3Cc2ccc(NS(=O)(=O)O)cc2)o1` [4-[(5-amino-7-(5-methylfuran-2-yl)-3H-[1,2,3]triazolo[4,5-d]pyrimidin-3-yl)methyl]phenylsulfamic acid], in assay [1], the Ki was ≤ 0.1 µM and the “A2A/A1 selectivity ratio (Ki A2A/Ki A1)” value is “H (more than 20)”. In addition, in assay [2], the Ki lay within 1 to 10 µM.
For `COc1cc(Cn2nnc3c(-c4ccco4)nc(N)nc32)ccc1NS(=O)(=O)O` [4-[(5-amino-7-(furan-2-yl)-3H-[1,2,3]triazolo[4,5-d]pyrimidin-3-yl)methyl]-2-methoxyphenylsulfamic acid] the same measures were 1 to 10 µM, “G (10 to 20)” and > 10 µM.
For `Cc1cc(Cn2nnc3c(-c4ccco4)nc(N)nc32)ccc1NS(=O)(=O)O` [4-[(5-amino-7-(furan-2-yl)-3H-[1,2,3]triazolo[4,5-d]pyrimidin-3-yl)methyl]-2-methylphenylsulfamic acid] the same measures were ≤ 0.1 µM, “H (more than 20)” and 0.1 to 1 µM.
The like results for `COc1cc(NS(=O)(=O)O)ccc1Cn1nnc2c(-c3ccco3)nc(N)nc21` [4-[(5-amino-7-(furan-2-yl)-3H-[1,2,3]triazolo[4,5-d]pyrimidin-3-yl)methyl]-3-methoxyphenylsulfamic acid] were, in that order, 0.1 to 1 µM, “G (10 to 20)” and > 10 µM.
On to `Nc1nc(-c2ccco2)c2nnn(Cc3ccc(NS(=O)(=O)O)cc3)c2n1` [4-[(5-amino-7-(furan-2-yl)-3H-[1,2,3]triazolo[4,5-d]pyrimidin-3-yl)methyl]phenylsulfamic acid], for which the Ki in assay [1] is ≤ 0.1 µM; in assay [2], 1 to 10 µM. Also, in assay [1], the “A2A/A1 selectivity ratio (Ki A2A/Ki A1)” value was “H (more than 20)”.
For `Nc1nc(-c2ccccc2)c2nnn(Cc3ccc(NS(=O)(=O)O)cc3)c2n1` [4-[(5-amino-7-(phenyl,2,3]triazolo[4,5-d]pyrimidin-3-yl)methyl]phenylsulfamic acid] the same measures were 0.1 to 1 µM, 1 to 10 µM and “G (10 to 20)”.
